Source: the NIST ThermoML archive (doi:10.1021/je025655p)
Numbers after ± are expanded uncertainties.

Settings: 101.33 kPa, Liquid; for viscosity: Capillary tube (Ostwald / Ubbelohde) method; for speed of sound: Sing-around technique in a fixed-path interferometer; for mass density: Vibrating tube method

| SMILES | viscosity (283.15 K) [mPa·s] | speed of sound (283.15 K) [m/s] | mass density (283.15 K) [kg/m3] | viscosity (298.15 K) [mPa·s] | speed of sound (298.15 K) [m/s] | mass density (298.15 K) [kg/m3] | viscosity (313.15 K) [mPa·s] | speed of sound (313.15 K) [m/s] | mass density (313.15 K) [kg/m3] |
| --- | --- | --- | --- | --- | --- | --- | --- | --- | --- |
| OCC(F)(F)F [2,2,2-trifluoroethanol] | 2.693 ± 0.023 | 872.3 ± 1.2 | 1407.89 ± 0.21 | 1.755 ± 0.017 | 826.7 ± 1.1 | 1382.44 ± 0.2 | 1.208 ± 0.012 | 791.7 ± 1.1 | 1356.91 ± 0.19 |
| C1CCOCC1 [tetrahydropyran] | 1.005 ± 0.0098 | 1335.8 ± 1.6 | 894.08 ± 0.46 | 0.8005 ± 0.0081 | 1255 ± 1.6 | 879.18 ± 0.45 | 0.6494 ± 0.0067 | 1199.8 ± 1.6 | 864.37 ± 0.45 |
